Assay results: patent publication US12448388B2, “PRMT5 inhibitors and uses thereof” (Gilead Sciences, Inc., priority 2023, dated 2025)
Where two headings read alike, the source gives them in different places.

Experiments:
[1] = system: HCT116 MTAP-deleted cell lines; assay: Cell viability assay (CellTiter-Glo, 7 days), HCT116 MTAP-deleted; type: cell-based; parameters: CC50 selectivity: unit not given beside the values
Outline: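 PRMT5 inhibitors were serially diluted in DMSO and acoustically spotted as dose-response series into plates before cell seeding. Cells were grown with compound for 7 days at 37 °C, 5% CO2, 90% humidity, then viability was read by CellTiter-Glo luminescence and reported as CC50.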

[2] = system: Symmetric Di-methyl Arginine (SDMA) signal (PRMT5 inhibition) in HCT116 MTAP-deleted cells; assay: Symmetric di-methyl arginine image-based high content screen assay (SDMA assay), HCT116 MTAP-deleted; type: cell-based; details: for EC50 selectivity: HCT116 WT vs HCT116 MTAP-deleted; for EC50: class symbols
Outline: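 HCT116 WT and MTAP-deleted cells (800/well, RPMI 1640 + 10% FBS) treated with compound 3 days at 37 °C; formalin-fixed, stained with anti-SDMA antibody/Alexa 488 plus DAPI. Mean SDMA intensity per DAPI-defined cell imaged; EC50 from 4-parameter logistic fit.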

[3] = Homo sapiens, HCT-116, cell viability assay, HCT116 MTAP-deleted, class symbols, read-out: CC50
[4] = Homo sapiens, HCT-116, HCT116 MTAP-deleted

EC50 selectivity [2]	EC50 [2, 4] [nM]	Structure (SMILES)	CC50 [1, 3] [nM]	CC50 [1] [nM]	CC50 selectivity [1]	EC50 ([2]; HCT116 MTAP-deleted) [nM]
85	≤ 1	Cc1cc2nc(N)c3cncn3c2cc1C(=O)N(C)[C@@H]1COc2cc(C(F)(F)F)ccc21 [Ff-674, (S)-4-amino-N,7-dimethyl-N-(6-(trifluoromethyl)-2,3-dihydrobenzofuran-3-yl)imidazo[1,5-a]quinoxaline-8-carboxamide]	< 100	–	–	–
107	≤ 1	Nc1nc2ccc(C(=O)N3CCC4(CC4)[C@@H]4Oc5cc(C(F)(F)F)ccc5[C@@H]43)cc2n2cncc12 [Ff-675, (4-aminoimidazo[1,5-a]quinoxalin-8-yl)((4aS,9bS)-7-(trifluoromethyl)-2,3,4a,9b-tetrahydro-1H-spiro[benzofuro[3,2-b]pyridine-4,1′-cyclopropan]-1-yl)methanone]	< 100	–	–	–
263	1 to 5	Cc1ncn2c1c(N)nc1cnc(C(=O)N3CCC4(CC4)[C@@H]4Oc5cc(C(F)(F)F)ccc5[C@@H]43)cc12 [Ff-678, (4-amino-3-methylimidazo[1,5-a]pyrido[3,4-e]pyrazin-8-yl)((4aS,9bS)-7-(trifluoromethyl)-2,3,4a,9b-tetrahydro-1H-spiro[benzofuro[3,2-b]pyridine-4,1′-cyclopropan]-1-yl)methanone]	< 100	–	–	–
50	1 to 5	C[C@H](c1ncccn1)N(Cc1ccc(C(F)(F)F)cn1)C(=O)c1ccc2nc(N)n3cncc3c2c1 [Fg-1, (R)-5-amino-N-(1-(pyrimidin-2-yl)ethyl)-N-((5-(trifluoromethyl)pyridin-2-yl)methyl)imidazo[1,5-c]quinazoline-9-carboxamide]	100 to 1000	–	–	–
39	1 to 5	Cc1ncn2c(N)nc3ccc(C(=O)N(Cc4ccc(C(F)(F)F)cn4)[C@H](C)c4ncccn4)cc3c12 [Fg-2, (R)-5-amino-1-methyl-N-(1-(pyrimidin-2-yl)ethyl)-N-((5-(trifluoromethyl)pyridin-2-yl)methyl)imidazo[1,5-c]quinazoline-9-carboxamide]	< 100	–	–	–
16	> 5	C[C@H](c1ncccn1)N(Cc1ccc(C(F)(F)F)cn1)C(=O)c1cc2c(cc1Cl)nc(N)n1cncc21 [Fg-3, (R)-5-amino-8-chloro-N-(1-(pyrimidin-2-yl)ethyl)-N-((5-(trifluoromethyl)pyridin-2-yl)methyl)imidazo[1,5-c]quinazoline-9-carboxamide]	100 to 1000	–	–	–
23	1 to 5	C[C@H](c1ncccn1)N(Cc1ccc(C(F)(F)F)cn1)C(=O)c1cc2c(cc1F)nc(N)n1cncc21 [Fg-4, (R)-5-amino-8-fluoro-N-(1-(pyrimidin-2-yl)ethyl)-N-((5-(trifluoromethyl)pyridin-2-yl)methyl)imidazo[1,5-c]quinazoline-9-carboxamide]	100 to 1000	–	–	–
19	1 to 5	Cc1ncc2c3cc(C(=O)N(Cc4ccc(C(F)(F)F)cn4)[C@H](C)c4ncccn4)ccc3nc(N)n12 [Fg-5, (R)-5-amino-3-methyl-N-(1-(pyrimidin-2-yl)ethyl)-N-((5-(trifluoromethyl)pyridin-2-yl)methyl)imidazo[1,5-c]quinazoline-9-carboxamide]	< 100	–	–	–
88	1 to 5	CCN(C(=O)c1ccc2nc(N)c3c(C)ncn3c2c1)[C@@H]1COc2cc(C(F)(F)F)ccc21 [Fg-6, (S)-4-amino-N-ethyl-3-methyl-N-(6-(trifluoromethyl)-2,3-dihydrobenzofuran-3-yl)imidazo[1,5-a]quinoxaline-8-carboxamide]	< 100	–	–	–
496	1 to 5	Cc1ncn2c1c(N)nc1ccc(C(=O)N(C)[C@@H]3COc4nc(C(F)(F)F)ccc43)cc12 [Fg-7, (S)-4-amino-N,3-dimethyl-N-(6-(trifluoromethyl)-2,3-dihydrofuro[2,3-b]pyridin-3-yl)imidazo[1,5-a]quinoxaline-8-carboxamide]	100 to 1000	–	–	–
255	> 5	CN(C(=O)c1ccc2nc(N)n3cncc3c2c1)[C@@H]1COc2cc(C(F)(F)F)ccc21 [Fg-9, (S)-5-amino-N-methyl-N-(6-(trifluoromethyl)-2,3-dihydrobenzofuran-3-yl)imidazo[1,5-c]quinazoline-9-carboxamide]	> 1000	–	–	–
307	> 5	Cc1ncc2c3cc(C(=O)N(C)[C@@H]4COc5cc(C(F)(F)F)ccc54)ccc3nc(N)n12 [Fg-10, (S)-5-amino-N,3-dimethyl-N-(6-(trifluoromethyl)-2,3-dihydrobenzofuran-3-yl)imidazo[1,5-c]quinazoline-9-carboxamide]	> 1000	–	–	–
225	> 5	Cc1ncn2c(N)nc3ccc(C(=O)N(C)[C@@H]4COc5cc(C(F)(F)F)ccc54)cc3c12 [Fg-11, (S)-5-amino-N,1-dimethyl-N-(6-(trifluoromethyl)-2,3-dihydrobenzofuran-3-yl)imidazo[1,5-c]quinazoline-9-carboxamide]	100 to 1000	–	–	–
168	≤ 1	Cc1ncn2c1c(N)nc1ccc(C(=O)N(C)C3CCc4nc(C(F)(F)F)ccc43)cc12 (stereo not shown) [Fg-12, 4-amino-N,3-dimethyl-N-(2-(trifluoromethyl)-6,7-dihydro-5H-cyclopenta[b]pyridin-5-yl)imidazo[1,5-a]quinoxaline-8-carboxamide]	< 100	–	–	–
207	≤ 1	Cc1ncn2c1c(N)nc1ccc(C(=O)N(C)[C@@H]3COCc4cc(Br)ccc43)cc12 [Fg-13, (S)-4-amino-N-(7-bromoisochroman-4-yl)-N,3-dimethylimidazo[1,5-a]quinoxaline-8-carboxamide]	< 100	–	–	–
158	1 to 5	Cc1nc(C)n2c1c(N)nc1ccc(C(=O)N(C)[C@@H]3COCc4cc(Br)ccc43)cc12 [Fg-14, (S)-4-amino-N-(7-bromoisochroman-4-yl)-N,1,3-trimethylimidazo[1,5-a]quinoxaline-8-carboxamide]	100 to 1000	–	–	–
8	> 5	Nc1nc2ccc(C(=O)N(Cc3ccc(C(F)(F)F)cn3)C34CC(C3)C4)cc2c2cncn12 [Fg-15, 5-amino-N-(bicyclo[1.1.1]pentan-1-yl)-N-((5-(trifluoromethyl)pyridin-2-yl)methyl)imidazo[1,5-c]quinazoline-9-carboxamide]	> 1000	–	–	–
6	> 5	Nc1nc2ccc(C(=O)N(Cc3cc4ccccn4n3)C34CC(C3)C4)cc2c2cncn12 [Fg-16, 5-amino-N-(bicyclo[1.1.1]pentan-1-yl)-N-(pyrazolo[1,5-a]pyridin-2-ylmethyl)imidazo[1,5-c]quinazoline-9-carboxamide]	> 1000	–	–	–
275	1 to 5	Cc1nc(C)n2c1c(N)nc1ccc(C(=O)N(C)[C@@H]3COc4cc(C(F)(F)F)ccc43)cc12 [Fg-18, (S)-4-amino-N,1,3-trimethyl-N-(6-(trifluoromethyl)-2,3-dihydrobenzofuran-3-yl)imidazo[1,5-a]quinoxaline-8-carboxamide]	100 to 1000	–	–	–
151	1 to 5	Cc1ncn2c1c(N)nc1ccc(C(=O)N3C[C@@H](C)O[C@@H]4Cc5cc(C(F)(F)F)ccc5[C@@H]43)cc12 [Fg-35, (4-amino-3-methylimidazo[1,5-a]quinoxalin-8-yl)((2R,4aS,9aR)-2-methyl-7-(trifluoromethyl)-2,3,9,9a-tetrahydroindeno[2,1-b][1,4]oxazin-4(4aH)-yl)methanone]	< 100	–	–	–
31	1 to 5	C[C@H]1CN(C(=O)c2cc3c(cc2F)nc(N)c2cncn23)[C@H]2c3ccc(C(F)(F)C(F)(F)F)cc3C[C@H]2O1 [Fg-38, (4-amino-7-fluoroimidazo[1,5-a]quinoxalin-8-yl)((2S,4aS,9aR)-2-methyl-7-(perfluoroethyl)-2,3,9,9a-tetrahydroindeno[2,1-b][1,4]oxazin-4(4aH)-yl)methanone]	< 100	–	–	–
92	≤ 1	Nc1nc2cc(F)c(C(=O)N3CCC[C@@H]4Oc5cc(C(F)(F)C(F)(F)F)ncc5[C@@H]43)cc2n2cncc12 [Fg-40, (4-amino-7-fluoroimidazo[1,5-a]quinoxalin-8-yl)((4aS,9bS)-7-(perfluoroethyl)-3,4,4a,9b-tetrahydrofuro[3,2-b:4,5-c′]dipyridin-1(2H)-yl)methanone]	< 100	–	–	–
42	1 to 5	Cc1ncn2c1c(N)nc1cc(F)c(C(=O)N3CCC[C@@H]4Oc5cc(C(F)(F)C(F)(F)F)ncc5[C@@H]43)cc12 [Fg-41, (4-amino-7-fluoro-3-methylimidazo[1,5-a]quinoxalin-8-yl)((4aS,9bS)-7-(perfluoroethyl)-3,4,4a,9b-tetrahydrofuro[3,2-b:4,5-c′]dipyridin-1(2H)-yl)methanone]	< 100	–	–	–

Structure (SMILES)	EC50 selectivity [2]	EC50 [2, 4] [nM]	CC50 [1, 3] [nM]	CC50 [1] [nM]	CC50 selectivity [1]	EC50 ([2]; HCT116 MTAP-deleted) [nM]
Nc1nc2cnc(C(=O)N3CCC[C@@H]4Oc5cc(S(F)(F)(F)(F)F)ccc5[C@@H]43)cc2n2cncc12 [Fg-42, (4-aminoimidazo[1,5-a]pyrido[3,4-e]pyrazin-8-yl)((4aS,9bS)-7-(pentafluoro-16-sulfaneyl)-3,4,4a,9b-tetrahydrobenzofuro[3,2-b]pyridin-1(2H)-yl)methanone]	57	–	–	< 100	38	≤ 1
